Results taken from patent US20260207704A1, “STAPLED PEPTIDES AND METHODS THEREOF” (priority 2022, published 2026).

Legend:
[1] = molecular target: T1, beta-catenin (Homo sapiens, UniProt P35222); experiment: fluorescence polarization binding to beta-catenin; details: read-out: beta-Catenin FP IC50
T1 sequence (P35222 1-781): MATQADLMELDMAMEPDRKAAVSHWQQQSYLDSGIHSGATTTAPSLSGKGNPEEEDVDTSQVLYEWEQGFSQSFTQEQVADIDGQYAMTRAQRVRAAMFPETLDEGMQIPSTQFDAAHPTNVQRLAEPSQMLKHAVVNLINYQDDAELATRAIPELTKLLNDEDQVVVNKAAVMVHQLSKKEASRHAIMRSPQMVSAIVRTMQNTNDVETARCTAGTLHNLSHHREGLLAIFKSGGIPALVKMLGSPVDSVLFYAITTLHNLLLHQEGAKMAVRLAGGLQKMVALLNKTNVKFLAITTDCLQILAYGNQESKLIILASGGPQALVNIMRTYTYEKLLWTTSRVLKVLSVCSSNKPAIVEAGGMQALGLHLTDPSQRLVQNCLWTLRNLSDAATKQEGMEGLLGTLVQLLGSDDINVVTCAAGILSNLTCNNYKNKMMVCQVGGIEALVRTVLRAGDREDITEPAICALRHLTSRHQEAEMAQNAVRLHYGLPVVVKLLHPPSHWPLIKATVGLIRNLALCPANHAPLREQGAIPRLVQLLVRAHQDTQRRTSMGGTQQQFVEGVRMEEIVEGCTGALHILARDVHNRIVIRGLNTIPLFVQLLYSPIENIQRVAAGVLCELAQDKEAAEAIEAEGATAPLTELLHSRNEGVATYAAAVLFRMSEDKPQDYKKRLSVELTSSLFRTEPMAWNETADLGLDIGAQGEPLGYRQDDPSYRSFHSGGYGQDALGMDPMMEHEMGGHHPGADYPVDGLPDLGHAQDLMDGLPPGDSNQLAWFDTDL

[2] = molecular target: T2, beta-catenin/TCF4 (Homo sapiens, UniProt P35222); experiment: Nano-BRET target engagement assay (HEK293 cells); assay type: cell-based; details: read-out: NanoBRET Abs IC50
T2 construct: expressed in transfected cells; host or cells: HEK293 cells
T2 sequence (P35222 1-781): T1 sequence (P35222 1-781)

IC50 [1]: < 50 nM
IC50 [2]: 3000 to 10000 nM
Substance: Ac-PL3-Asp-Npg-B5-Asp-4F3Me2COOHF-Aib-Ala-Phe-Lys*3-PyrS2-2F3MeF-BztA-GlnR*3-Ala-NH2 [I-205]
